Reference: ChEMBL document CHEMBL4387778, “Dual functional cholinesterase and PDE4D inhibitors for the treatment of Alzheimer's disease: Design, synthesis and evaluation of tacrine-pyrazolo[3,4-b]pyridine hybrids” (Bioorg Med Chem Lett, 2019)

Legend:
Acetylcholinesterase = Acetylcholinesterase (Electrophorus electricus, UniProt O42275); test: Inhibition of electric eel AchE using acetylthiocholine as substrate by Ellman's method
Cholinesterase = Cholinesterase (Equus caballus, UniProt P81908); test: Inhibition of equine serum BuchE using butyrylthiocholine as substrate by Ellman's method
[1] = biological target: 3',5'-cyclic-AMP phosphodiesterase 4D (Homo sapiens, UniProt Q08499)
3',5'-cyclic-AMP phosphodiesterase 4D, sequence (Q08499 whole entry): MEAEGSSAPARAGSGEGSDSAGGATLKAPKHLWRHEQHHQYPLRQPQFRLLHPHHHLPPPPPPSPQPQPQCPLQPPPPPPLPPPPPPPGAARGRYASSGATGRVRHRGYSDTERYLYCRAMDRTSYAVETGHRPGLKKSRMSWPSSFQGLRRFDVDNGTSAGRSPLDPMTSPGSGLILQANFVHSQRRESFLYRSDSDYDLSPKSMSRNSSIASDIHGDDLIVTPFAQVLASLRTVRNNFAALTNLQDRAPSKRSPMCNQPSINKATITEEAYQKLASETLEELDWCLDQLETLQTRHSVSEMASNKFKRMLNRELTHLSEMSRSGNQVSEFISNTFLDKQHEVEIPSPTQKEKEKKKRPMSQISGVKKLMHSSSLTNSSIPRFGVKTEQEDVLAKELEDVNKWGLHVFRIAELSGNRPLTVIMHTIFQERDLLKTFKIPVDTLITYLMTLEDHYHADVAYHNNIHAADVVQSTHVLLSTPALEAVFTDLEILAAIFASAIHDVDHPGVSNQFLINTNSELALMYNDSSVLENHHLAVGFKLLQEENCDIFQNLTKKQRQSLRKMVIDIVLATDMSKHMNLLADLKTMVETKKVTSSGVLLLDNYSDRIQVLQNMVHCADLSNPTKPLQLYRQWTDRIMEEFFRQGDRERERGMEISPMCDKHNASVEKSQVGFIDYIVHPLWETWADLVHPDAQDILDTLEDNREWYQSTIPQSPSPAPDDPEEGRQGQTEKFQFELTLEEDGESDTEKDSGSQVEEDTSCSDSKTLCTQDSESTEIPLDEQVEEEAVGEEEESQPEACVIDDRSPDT
Description: Inhibition of recombinant human PDE4D2 catalytic domain (86 to 413 residues) expressed in Escherichia coli BL21 codonplus cells using [3H]cAMP as substrate preincubated for 15 mins followed by substrate addition by liquid scintillation counting method

Cholinesterase, sequence (P81908 whole entry): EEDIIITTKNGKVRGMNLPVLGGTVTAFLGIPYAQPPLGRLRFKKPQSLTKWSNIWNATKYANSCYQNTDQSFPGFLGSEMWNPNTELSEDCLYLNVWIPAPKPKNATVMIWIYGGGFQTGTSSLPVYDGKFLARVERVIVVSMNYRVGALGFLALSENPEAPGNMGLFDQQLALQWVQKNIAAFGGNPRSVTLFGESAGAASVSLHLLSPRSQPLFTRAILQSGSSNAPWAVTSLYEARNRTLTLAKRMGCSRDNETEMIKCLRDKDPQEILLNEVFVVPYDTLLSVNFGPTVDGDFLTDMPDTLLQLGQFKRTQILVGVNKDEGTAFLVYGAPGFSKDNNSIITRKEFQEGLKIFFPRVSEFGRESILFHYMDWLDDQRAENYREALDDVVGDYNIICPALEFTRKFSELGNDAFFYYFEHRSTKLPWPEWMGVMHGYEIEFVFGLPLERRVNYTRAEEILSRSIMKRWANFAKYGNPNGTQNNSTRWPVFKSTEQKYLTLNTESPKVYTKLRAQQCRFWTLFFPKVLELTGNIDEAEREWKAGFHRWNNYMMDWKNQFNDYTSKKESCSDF
Acetylcholinesterase, sequence (O42275 whole entry): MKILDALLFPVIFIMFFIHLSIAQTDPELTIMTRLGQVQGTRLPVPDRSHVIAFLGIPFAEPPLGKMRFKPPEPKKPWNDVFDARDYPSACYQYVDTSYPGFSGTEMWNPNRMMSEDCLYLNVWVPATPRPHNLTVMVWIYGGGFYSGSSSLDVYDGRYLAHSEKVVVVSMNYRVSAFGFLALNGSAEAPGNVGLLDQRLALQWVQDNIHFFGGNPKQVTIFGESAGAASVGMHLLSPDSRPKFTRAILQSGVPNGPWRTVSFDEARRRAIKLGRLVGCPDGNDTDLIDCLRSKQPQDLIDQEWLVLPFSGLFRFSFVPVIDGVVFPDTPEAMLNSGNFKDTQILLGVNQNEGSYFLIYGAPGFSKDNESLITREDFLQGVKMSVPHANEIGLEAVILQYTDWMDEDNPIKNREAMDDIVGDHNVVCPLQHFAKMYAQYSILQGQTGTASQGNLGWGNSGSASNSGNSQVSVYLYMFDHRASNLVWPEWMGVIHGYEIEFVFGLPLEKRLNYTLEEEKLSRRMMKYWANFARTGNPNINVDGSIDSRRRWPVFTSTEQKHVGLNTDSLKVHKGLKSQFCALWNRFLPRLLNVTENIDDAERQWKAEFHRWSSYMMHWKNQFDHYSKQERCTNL

SMILES | IC50 (Acetylcholinesterase) [nM] | IC50 (Cholinesterase) [nM] | IC50 [1] [nM]
CCn1ncc2c(NC3CCCCC3)c(C(=O)NCCCCCCCNc3c4c(nc5ccc(Cl)cc35)CCCC4)cnc21 | 391 | 245 | 934
CCn1ncc2c(NC3CCCCC3)c(C(=O)NCCCCCCCCNc3c4c(nc5ccccc35)CCCC4)cnc21 | 392 | 320 | 1310
CCn1ncc2c(NC3CCCCC3)c(C(=O)NCCCCCNc3c4c(nc5ccc(Cl)cc35)CCCC4)cnc21 | 306 | 434 | 308
CCn1ncc2c(NC3CCCCC3)c(C(=O)NCCCCCCNc3c4c(nc5cc(Cl)ccc35)CCCC4)cnc21 | 125 | 449 | 271
CCn1ncc2c(NC3CCCCC3)c(C(=O)NCCCCNc3c4c(nc5cc(Cl)ccc35)CCCC4)cnc21 | 335 | 1280 | 87
CCn1ncc2c(NC3CCCCC3)c(C(=O)NCCCCCCCCNc3c4c(nc5cc(Cl)ccc35)CCCC4)cnc21 | 812 | 314 | 1080
CCn1ncc2c(NC3CCCCC3)c(C(=O)NCCNc3c4c(nc5cc(Cl)ccc35)CCCC4)cnc21 | 412 | 713 | 25
CCn1ncc2c(NC3CCCCC3)c(C(=O)NCCCCCNc3c4c(nc5ccccc35)CCCC4)cnc21 | 358 | 264 | 477
CCn1ncc2c(NC3CCCCC3)c(C(=O)NCCCCCCNc3c4c(nc5ccccc35)CCCC4)cnc21 | 149 | 332 | 501
CCn1ncc2c(NC3CCCCC3)c(C(=O)NCCNc3c4c(nc5ccccc35)CCCC4)cnc21 | 243 | 891 | 41
CCn1ncc2c(NC3CCCCC3)c(C(=O)NCCCCNc3c4c(nc5ccccc35)CCCC4)cnc21 | 333 | 889 | 108
CCn1ncc2c(NC3CCCCC3)c(C(=O)NCCCCCCCNc3c4c(nc5ccccc35)CCCC4)cnc21 | 316 | 324 | 1070
